Assay [1] deals with nNOS (Homo sapiens, UniProt P29475). As to the kind of experiment: nNOS enzyme assay (hemoglobin capture assay). In kind it is biochemical. The settings on record: for IC50: hemoglobin capture assay, initial velocity, read-out: IC50 of NOS, nNOS; for inhibition at 100 µM: read-out: Percent Inhibition of NOS, nNOS. The protocol:
(§1) The generation of nitric oxide by NOS was measured using the hemoglobin capture assay (Proc. Natl. Acad. Sci., U.S.A. 1990, 87, 714). As assay mixture for nNOS contained […], 1.6 mM CaCl2, […] calmoduline, […], 6.5 mM BH4 and 3 mM oxyhemoglobin in 100 mM Hepes (pH 7.5). The reaction mixture for iNOS contained 10 mM of L-arginine, […], 6.5 mM BH4 and 3 mM oxyhemoglobin in 100 mM Hepes (pH 7.5). All assays were in a final volume of […] and were initiated with enzyme. Nitric oxide reacts with oxyhemoglobin to yield methehemoglobin which is detected at 401 nm (e=19,700 M^−1cm^−1) on a Perkin-Elmer Lamda 10 UV/vis spectrophotometer.
(§2) IC50 and percent inhibition of NOS by the compounds of the invention was determined under initial velocity measurement condition with hemoglobin capture assay as described above using varying concentrations of the compounds of the invention.

The target in assay [2] is iNOS (Homo sapiens, UniProt P35228). Kind of assay: iNOS enzyme assay (hemoglobin capture assay). The conditions noted are these: for IC50: hemoglobin capture assay, initial velocity, read-out: IC50 of NOS, iNOS; for inhibition at 100 µM: read-out: Percent Inhibition of NOS, iNOS. In kind it is biochemical. The protocol:
as §1, §2

Where a name gives a salt, the structure may show the parent alone.

As for `CC(=O)Nc1ccc2c(c1)C(=O)Nc1ccccc1N2` [Example 7, N-(11-Oxo-10,11-dihydro-5H-dibenzo[b,e][1,4]diazepin-2-yl)-acetamide], the IC50 worked out at 400 µM in assay [1] and 500 µM in assay [2].

On to `O=C(NC(=S)Nc1ccc2c(c1)C(=O)Nc1ccccc1N2)c1ccccc1` [Example 8, 1-Benzoyl-3-(11-oxo-10,11-dihydro-5H-dibenzo[b,e][1,4]diazepin-2-yl)-thiourea], for which the values for the half-inhibitory concentration (IC50) in assay [1] and in assay [2] were 120 µM and 300 µM, respectively.

As for `NC(=S)Nc1ccc2c(c1)C(=O)Nc1ccccc1N2` [Example 9, (11-Oxo-10,11-dihydro-5H-dibenzo[b,e][1,4]diazepin-2-yl)-thiourea], the values for the IC50 in assay [1] and in assay [2] were 250 µM and 300 µM, respectively.

`CCSC(=N)Nc1ccc2c(c1)C(=O)Nc1ccccc1N2` [Example 10, 2-Ethyl-1-(11-oxo-10,11-dihydro-5H-dibenzo[b,e][1,4]diazepin-2-yl)-isothiourea]: the figures for the concentration for half-maximal inhibition (IC50) in assay [1] and in assay [2] were 20 µM and 100 µM, respectively.

For `CC(=N)Nc1ccc2c(c1)C(=O)Nc1ccccc1N2` [Example 11, N-(11-Oxo-10,11-dihydro-5H-dibenzo[b,e][1,4]diazeoin-2-yl)-acetamidine hydrobromide], the 50% inhibitory concentration (IC50) in assay [1] stood at 200 µM; in assay [2], 500 µM.

For `N=C(Nc1ccc2c(c1)C(=O)Nc1ccccc1N2)SCc1ccc2ccccc2c1` [Example 12, 2-Naphthalen-2-ylmethyl-1-(11-oxo-10,11-dihydro-5H-dibenzo[b,e][1,4]diazepin-2-yl)-isothiourea], the inhibition at 100 µM was found to be 21% in assay [1] and 28% in assay [2].

For the compound `N=C(Nc1ccc2c(c1)C(=O)Nc1ccccc1N2)SCc1ccccc1` [Example 13, 2-Benzyl-1-(11-oxo-10,11-dihydro-5H-dibenzo[b,e][1,4]diazepin-2-yl)-isothiourea], the inhibition at 100 µM was 48% in assay [1] and 29% in assay [2].

For `CC(=N)Nc1ccc2c(c1)C(=O)Nc1ccccc1O2` [Example 14, N-(11-Oxo-10,11-dihydro-dibenzo[b,f][1,4]oxazepin-2-yl)-acetamidine], the concentration for half-maximal inhibition (IC50) in assay [1] worked out at 200 µM; in assay [2], 300 µM.

Take `O=C(NC(=S)Nc1ccc2c(c1)C(=O)Nc1ccccc1O2)c1ccccc1` [Example 15, 1-Benzoyl-3-(11-oxo-10,11-dihydro-dibenzo[b,f][1,4]oxazepin-2-yl)-thiourea]: the IC50 in assay [1] stood at 100 µM; in assay [2] it was 200 µM.

Consider `NC(=S)Nc1ccc2c(c1)C(=O)Nc1ccccc1O2` [Example 16, (11-Oxo-10,11-dihydro-dibenzo[b,f][1,4]oxazepin-2-yl)-thiourea], for which the half-inhibitory concentration (IC50) in assay [1] is 200 µM; in assay [2], 150 µM.

`O=C1Nc2ccccc2Oc2ccc(NC(=S)Nc3ccccc3)cc21` [Example 17, 1-(11-Oxo-10,11-dihydro-dibenzo[b,f][1,4]oxazegin-2-yl)-3-phenyl-thiourea]: the values for the inhibition at 100 µM in assay [1] and in assay [2] were 7% and 24%, respectively.

In the case of `N=C(Nc1ccc2c(c1)C(=O)Nc1ccccc1O2)c1cccs1` [Example 18, N-(11-Oxo-10,11-dihydro-dibenzo[b,f][1,4]oxazepin-2-yl)-thiophene-2-carboxamidine hyrobromide], the inhibition at 100 µM came out at 25% in assay [1] and 14% in assay [2].

Regarding `N=C(Nc1ccc2c(c1)C(=O)Nc1ccccc1N2)c1cccs1` [Example 19, N-(11-Oxo-10,11-dihydro-5H-dibenzo[b,e][1,4]diazepin-2-yl)-thiophene-2-carboxamidine hydrobromide], the inhibition at 100 µM in assay [1] was determined as 42%; in assay [2], 17%.

(Values after patent publication US6919328B1, “Tricyclic compounds with NOS activity” (Neuraxon Inc., priority 2001, dated 2005).)
